Results reported in article PMC7956819, “Peptides from the Intestinal Tract of Breast Milk-Fed Infants Have Antimicrobial and Bifidogenic Activity” (International Journal of Molecular Sciences, 2021).
Entries after “also recorded” stand apart in the source; their conditions may differ. Peptide text beside a SMILES is read from it.

How the values were obtained:
[1] = function listed in the MBPDB for the identical sequence; not tested here; cited from earlier work
Excerpt: page 3: Ta ble S1. List of known bioactive peptides in the infant intestinal samples.

[2] = system: Staphylococcus aureus ATCC 12600; format: cell-based; settings: ATCC 12600, 18 h
Method: (§1) The bioactivity of the intestinal peptide extracts was determined via the microdilution method. Antimicrobial activity was screened with E. coli and S. aureus as representatives of common infant pathogens responsible for infectious disease, and growth-promoting activity was screened with B. infantis, one of the ideal colonizers of the infant gut. For the antimicrobial assays, colonies of bacteria were selected and inoculated in 2 mL of MHB and incubated at 37 °C for 24 h. The inoculum was diluted to 2 × 10^5 CFU/mL with MHB. For the growth-promoting assays, 100 µL of stock bacteria were inoculated in 10 mL of reinforced clostridial broth supplemented with 0.1% ascorbic acid and incubated under anaerobic conditions (BD BBL™ GasPak™) at 37 °C for 24 h. Optical density was measured at 600 nm, and the inoculum was diluted to an optical density of 0.05 with reinforced clostridial broth.
(§2) The intestinal peptide extracts were serially diluted with PBS to concentrations of 1×, 1/2×, 1/4×, 1/8×, 1/16×, 1/32×, 1/64×, and 1/128×. In a 96-well plate, 50 µL of each dilution was incubated with 50 µL of inoculum in duplicate, along with a negative control of 50 µL of inoculum with 50 µL of pure PBS and a sterility test of 50 µL of peptide with 50 µL of broth. Growth was determined by optical density readings at 600 nm (OD600) taken at 0 h (T0) and 18 h (T18). The following equation was used to determine percent inhibition or promotion of bacterial growth:
(§3) Candidate peptides were synthesized and dissolved in sterile nanopure water. Antimicrobial and growth-promoting assays were carried out as described above with serial dilutions ranging from […] to 15.6 μg/mL. Minimum inhibitory concentration (MIC) was determined by the concentration at which all visible growth was inhibited.

[3] = system: Escherichia coli BL21 (DE3); format: cell-based; settings: BL21, 18 h
Method: as §1, §2, §3

[4] = system: Bifidobacterium longum spp. infantis ATCC 15697; format: cell-based; settings: ATCC 15697, 18 h
Method: as §1, §2, §3

Molecule | Function (known bioactive peptides in the infant intestinal samples) [1] | other results
LIVTQTMK | Cytotoxic | –
FVAPFPEVFG | ACE-inhib itory | –
TKVIPYVRYL | Antimicrobial | –
LLYQEPVLGPVRGPFPIIV | ACE-inhibitory | –
VLPVPQKAVPYPQR | Antimicrobial | –
NLHLPLP | ACE-inhibitory | –
AASDISLLDAQSAPLR | Antimicrobial | –
VLVLDTDYK | Antimicrobial; also recorded: DPP-IV-inhibitory | –
NLHLPLPLL | ACE-inhibitory | –
TVYTKGRVMP | ACE-inhibitory | –
YQKFPQY | ACE-inhibitory; also recorded: Antioxidant | –
ALNEINQFYQK | ACE-inhibitory | –
TPEVDDEALEK | Antimicrobial; also recorded: DPP-IV-inhibitory | –
LKPTPEGDLE | DPP-IV-inhibitory | –
LENLHLPLP | ACE-inhibitory | –
YQEPVLGPVRGPFPI | Antimicrobial | –
LTDLENLHLP | ACE-inhibitory | –
INNQFLPYPY | DPP-I V-inhibitory | –
GLDIQKVAGT | Antimicrobial | –
TEDELQDKIHPF | Antimicrobial | –
CC[C@H](C)[C@H](NC(=O)[C@H](CCC(N)=O)NC(=O)[C@H](Cc1c[nH]cn1)NC(=O)[C@@H](NC(=O)[C@@H]1CCCN1C(=O)[C@H](CC(N)=O)NC(=O)[C@H](CC(C)C)NC(=O)[C@@H](N)CC(C)C)[C@@H](C)O)C(=O)N[C@@H](Cc1ccc(O)cc1)C(=O)N1CCC[C@H]1C(=O)N[C@H](C(=O)N[C@H](C(=O)N[C@@H](CCC(N)=O)C(=O)N1CCC[C@H]1C(=O)N[C@@H](CC(C)C)C(=O)N[C@@H](C)C(=O)N1CCC[C@H]1C(=O)N[C@H](C(=O)N[C@@H](Cc1c[nH]cn1)C(=O)N[C@@H](CC(N)=O)C(=O)N1CCC[C@H]1C(=O)N[C@H](C(=O)N[C@@H](CO)C(=O)O)[C@@H](C)CC)C(C)C)[C@@H](C)O)C(C)C [Peptide 2] (H-LLNPTHQIYPVTQPLAPVHNPIS-OH) | – | S. aureus MIC [2]: >3000 µg/mL; E. coli MIC [3]: >3000 µg/mL; B. infantis MIC [4]: >3000 µg/mL
RELEELNVPGEIVESLSSSEESITR | Caseinophosphopeptide; also recorded: Immunomodulatory | –
LYQEPVLGPVRGPFPIIV | Immunomodulatory | –
QEPVLGPVRGPFPIIV | ACE-inhibitory | –
YQEPVLGPVRGPFPIIV | ACE-inhibitory; also recorded: Antimicrobial; also recorded: Antithrombin; also recorded: Immunomodulatory | –

Molecule | Function (known bioactive peptides in the infant intestinal samples) [1] | other results
LVYPFPGPI | ACE-inhibitory | –
PVVVPPFLQPE | Antimicrobial | –
YLGYLEQLLR | Anxiolytic | –
HPHPHLSF | ACE-inhibitory | –
MAIPPKKNQDKTEIPTINT | Antimicrobial | –
CSCC[C@H](NC(=O)[C@@H](N)CC(=O)O)C(=O)N[C@@H](CC(C)C)C(=O)N[C@H](C(=O)N[C@H](C(=O)N[C@@H](CC(=O)O)C(=O)N1CCC[C@H]1C(=O)N[C@@H](CCCCN)C(=O)O)C(C)C)C(C)C [Peptide 9] (H-DMLVVDPK-OH; N-terminus and C-terminus assumed) | – | S. aureus MIC [2]: 3000 µg/mL; E. coli MIC [3]: 3000 µg/mL; B. infantis MIC [4]: >3000 µg/mL
PYVRYL | ACE-inhibitory; also recorded: Antimicrobial; also recorded: Antioxidant | –
QVVPYPQ | Antioxidant | –
MPFPKYPVEP | ACE-inhibitory | –
CC[C@H](C)[C@H](NC(=O)[C@@H](NC(=O)[C@@H]1CCCN1C(=O)[C@H](CC(C)C)NC(=O)[C@H](C)NC(=O)[C@H](CO)NC(=O)[C@@H](NC(=O)[C@@H](N)CCSC)[C@@H](C)O)[C@@H](C)CC)C(=O)N[C@@H](CCC(N)=O)C(=O)N[C@@H](CCCCN)C(=O)O [Peptide 10] (H-MTSALPIIQK-OH) | – | S. aureus MIC [2]: >3000 µg/mL; E. coli MIC [3]: >3000 µg/mL; B. infantis MIC [4]: >3000 µg/mL
DKIYPSFQPQPLIYP | ACE-inhibitory | –
YANPAVVRP | ACE-inhibitory | –
NCCCC[C@H](NC(=O)CNC(=O)[C@H](Cc1ccccc1)NC(=O)[C@H](CCCCN)NC(=O)[C@@H](N)CCC(=O)O)C(=O)N[C@@H](CC(=O)O)C(=O)N[C@@H](CCCCN)C(=O)N[C@@H](CO)C(=O)N1CCC[C@H]1C(=O)N[C@@H](CCCCN)C(=O)N[C@@H](Cc1ccccc1)C(=O)N[C@@H](CCC(N)=O)C(=O)O [Peptide 8] (H-EKFGKDKSPKFQ-OH) | – | S. aureus MIC [2]: 3000 µg/mL; E. coli MIC [3]: 3000 µg/mL; B. infantis MIC [4]: >3000 µg/mL
VENLHLPLPLL | ACE-inhibitory | –
WSVPQPK | ACE-inhibitory; also recorded: Antioxidant | –
IQPKTKVIPYVR | Antimicrobial | –
VKEAMAPK | Antimicrobial; also recorded: Antioxidant | –
ENLHLPLPLL | ACE-inhibitory | –
FALPQYLK | ACE-inhibitory; also recorded: Antioxidant | –
VYPFPGPIPN | ACE-inhibitory; also recorded: Antioxidant | –
YQEPVLGPVR | ACE-inhibitory; also recorded: Immunomodulatory | –
LPQNIPPLT | DPP-IV-inhibitory | –
IKHQGLPQEV | Antimicrobial | –
VYPFPGPI | PEP-inhibitory | –
IGSENSEKTTMP | ACE-inhib itory | –

Molecule | Function (known bioactive peptides in the infant intestinal samples) [1] | other results
IYPSFQPQPLIYP | ACE-inhibitory | –
IIAEKTKIPAVF | Antimicrobial | –
FFVAPFPEVFGK | ACE-inhib itory | –
ENLHLPLP | ACE-inhibitory | –
SPTIPFFDPQIPK | Cell-proliferative | –
SDIPNPIGSENSEK | Antimicrobial | –
RETIESLSSSEESITEYK | Cell-proliferative | –
TKKTKLTEEEKNRL | Antimicrobial | –
FQPQPLIYP | ACE-inhibitory | –
AMKPWIQPK | ACE-inhib itory | –
IQKVAGTW | ACE-inhibitory; also recorded: DPP-IV-inhibitory | –
LKPTPEGDL | DPP-IV-inhibitory | –
ALPMHIR | ACE-inhibitory; also recorded: Cell-proliferative | –
DAQSAPLRVY | ACE-inhibitory | –
EPVLGPVRGPFP | ACE-inhibitory | –
LDIQKVAGTW | ACE-inhibitory | –
VLGPVRGPFP | ACE-inhibitory | –
LKALPMH | ACE-inhibitory; also recorded: DPP-IV-inhibitory | –
LLNQELLLNPTHQIYPV | Antimicrobial | –
ALKALPMHIR | Cell-proliferative | –
FSDKIAK | ACE-inhibitory; also recorded: Antimicrobial | –
LRLKKYKVPQL | Antimicrobial | –
QELLLNPTHQIYPVTQPLAPVHNPISV | Antimicrobial | –
VYVEELKPTPEGDLEILLQK | Hypocholesterolemic | –
FPEVFGK | ACE-inhib itory | –
